Measurements taken from patent US5491135A (priority 1993, dated 1996).
Several values for one entry are separate records, joined by “and”; a condition that tells them apart may be missing. Equal values may be shown once. Read-outs that look alike come from different tables or passages of the source.

Legend:
herpesvirus = conditions: cited from earlier work
[1] = system: respiratory syncytial virus (RSV); experiment: RSV infection in cotton rats, lung titre; format: in vivo, cotton rat
Source text: 1. 50 to 100 g cotton rats of either sex inoculated i.n. with RS A2 (pool 8-28-92) on day 0.
2. On day +1 animals were given placebo or PALA as follows:
3. All animals killed on day +4 and their lungs tested for RSV levels.

simian varicella virus = experiment: Simian varicella virus infection in African green monkeys; format: in vivo, African green monkey; conditions: for Viremia, Mean PFU: mg/kg/d i.v.
Procedure: Fifteen African green monkeys were weighed and bled for clinical chemistry hematology baselines. […] Each of the 15 monkeys were infected with simian varicella virus by intratracheal inoculation of 3.7×10^4 plaque forming units (PFU) of simian varicella virus. […] Control monkeys, service as infection controls, received twice daily intravenous injections of phosphate buffered saline administered at 1.0 ml/kg of body weight. A second group of three monkeys received PALA at 50 mg/kg/day given by intravenous bolus injection into the saphenous vein. A third group was given a lower dose of PALA at 20 mg/kg/day administered in a similar manner. Acyclovir treatment was administered at a subeffective dose of 10 mg/kg/day also given as intravenous bolus injection into the saphenous vein. A fifth group of three monkeys received a combined treatment of PALA at 20 mg/kg/day and acyclovir at 10 mg/kg/day. The drugs were injected into opposite veins at each time of treatment.
Drug solutions were prepared daily prior to treatment. Treatment was begun 24 hours after virus inoculation. PALA was provided as a solution in vials containing 5 ml at 100 mg/ml. The contents of three vials were pooled and seven ml of the pooled drug diluted to 28 ml to give 25 mg/ml. Five ml of this solution was diluted to […] to give 10 mg/ml. Drug was administered twice daily resulting in total daily doses of 50 or 20 mg/kg/day.
Acyclovir received as a gift from Burroughs Wellcome was weighed out as a 200 mg quantity. This was diluted with 5 ml of PBS and pH adjusted to 11.0 with 1N NaOH to effect solution. This was subsequently diluted to 40 ml to give a solution of 5 mg/ml and sterilized by filtration. Again, 1 ml per kg of body weight was administered by intravenous injection twice daily resulting in a dose of 10 mg/kg/day.
The clinical course of simian varicella infection was followed by collection of 2 ml of blood in heparin on day 2, 5, 7, 9 and 11 post-inoculation. The lymphocytes in the 2 ml specimen were separated on ficol-hypaque gradients, washed twice in RPMI-1640 medium and suspended in 10 ml of this medium. The 10 ml volume was divided between two 25 cm^2 tissue culture flasks seeded 24 hours earlier with Vero cells. After 5-7 days incubation, the culture fluids were discarded from the flasks and the cell monolayer fixed with methanol and stained with methylene blue-basic fuchsin. When dried the number of plaques in each flask were counted and the mean number of plaques between the two paired flasks were determined and expressed as a quantitation of viremia per ml of blood.
Rash was evaluated daily using a subjective scoring of severity from ± to 4+. A ± score indicates less than 10 vesicles seen on the skin of the monkey while 4+ indicates numerous vesicles covering the majority of the body surface. General clinical condition was assessed daily and anorexia noted by counting the number of food biscuits consumed daily. Monkeys dying during the course of the experiment were necropsied and simian varicella was determined as the cause of death based on the typical pathology. Baseline hematology and clinical chemistry tests were performed at three days before virus inoculation and again on day 0, immediately before virus inoculation. Following inoculation of simian varicella virus blood was taken for hematology and clinical chemistry tests at 3, 7, 9 and 11 days.
At 14 and 21 days after virus inoculation, blood was taken and the serum separated for quantitation of antibody. Antibody titers were obtained in a serum neutralization test employing a plaque reduction assay. The antibody titer expressed is the dilution of serum resulting in an 80 percent reduction in the number of plaques from that number occurring in control cultures without added serum.

flaviviruses = experiment: Antiviral test of 2-dGlc; format: cell-based; conditions: alone
[2] = PALA 50, rifampicin 10 or both, mg/kg/day i.v.
[3] = day 10, PALA 50, rifampicin 10 mg/kg/d or both

For O=C(O)CP(=O)(O)O [PAA, phosphonoacetic acid, reference compound], the “antiherpesvirus activity” value (herpesvirus) is given as “selective antiherpesvirus agent”.

With NC(=O)c1ncn([C@@H]2O[C@H](CO)[C@@H](O)[C@H]2O)n1 [RIBAVIRIN, reference compound] the RSV lung titre ([1]; ribavirin 40 mg/kg, alone or + PALA 3 mg/kg, individual animal) was 3.4 LOG10 and 2.9 LOG10 and 3.5 LOG10 and the “RSV lung titre, mean (SD)” value ([1]; ribavirin 40 mg/kg/day, alone or + PALA 3) was 3.3 (0.3) LOG10 /G Lung.

With Nc1nc2c(ncn2COCCO)c(=O)[nH]1 [Acyclovir, reference compound] the “effect on rash / viremia” value (simian varicella virus; PALA 20, Acyclovir 10 or both, mg/kg/day i.v.) was “no effect in moderating viremia”, the “thrombocytopenia on day 11” value (simian varicella virus; PALA 50 or Acyclovir 10 mg/kg/day) was “two monkeys” and the “Viremia, Mean PFU” value (simian varicella virus; day 7, PALA 20, Acyclovir 10 or both) was > 1000 PFU and 504 PFU. The “Viremia, Mean PFU” value (simian varicella virus; day 11, PALA 20, Acyclovir 10 or both) was 0 PFU.

In the case of O=CC[C@@H](O)[C@H](O)[C@H](O)CO [2-dGlc, 2-deoxy-D-glucose], the effect against flaviviruses (flaviviruses) is reported as “no effect”.

In the case of CO[C@H]1/C=C/O[C@@]2(C)Oc3c(C)c(O)c4c(O)c(c(/C=N/N5CCN(C)CC5)c(O)c4c3C2=O)NC(=O)/C(C)=C\C=C\[C@H](C)[C@H](O)[C@@H](C)[C@@H](O)[C@@H](C)[C@H](OC(C)=O)[C@@H]1C [Rifampicin, reference compound], the “lesion development” value (vaccinia virus; [2]) is reported as “appreciable skin lesions”, the “virus titers in skin” value (vaccinia virus; [2]) is reported as “Higher titers” and the Weight (vaccinia virus; day 0, PALA 50, rifampicin 10 mg/kg/d or both) is reported as 5.2 kg and 2.6 kg and 4.2 kg. The “Vaccinia Lesion Score, group mean” value (vaccinia virus; day 3, PALA 50, rifampicin 10 mg/kg/d or both) was 0.4, the “Vaccinia Lesion Score, group mean” value (vaccinia virus; day 6, PALA 50, rifampicin 10 mg/kg/d or both) was 1.2 and the “Vaccinia Lesion Score” value (vaccinia virus; day 6, PALA 50, rifampicin 10 mg/kg/d or both, per monkey) was 1.6 and 0.7 and 1.4. The “Vaccinia Lesion Score, group mean” value (vaccinia virus; day 7, PALA 50, rifampicin 10 mg/kg/d or both) was 1.7, the “Vaccinia Lesion Score, group mean” value (vaccinia virus; day 8, PALA 50, rifampicin 10 mg/kg/d or both) was 1.3 and the “Vaccinia Lesion Score, group mean” value (vaccinia virus; day 9, PALA 50, rifampicin 10 mg/kg/d or both) was 1.2. The “Vaccinia Lesion Score, group mean” value (vaccinia virus; [3]) was 1.6, the Weight (vaccinia virus; [3]) was 4.6 kg and 2.4 kg and 3.8 kg and the “Vaccinia Lesion Score, group mean” value (vaccinia virus; day 13, PALA 50, rifampicin 10 mg/kg/d or both) was 0.9. The Weight (vaccinia virus; day 14, PALA 50, rifampicin 10 mg/kg/d or both) was 4.6 kg and 2.4 kg and 3.8 kg, the Weight (vaccinia virus; day 21, PALA 50, rifampicin 10 mg/kg/d or both) was 4.8 kg and 2.6 kg and 4.0 kg and the signs of toxicity (vaccinia virus; except one monkey at PALA 125 mg/kg bolus) was “No appreciable signs of toxicity”. The “Titer of vaccinia virus in skin biopsy” value (vaccinia virus; head prints day 6, PALA 50, rifampicin 10 mg/kg/d or both) was 1.5 × 10^7 PFU/ml and 1.2 × 10^5 PFU/ml and 1.1 × 10^5 PFU/ml.
